Measurements reported in patent US11590233B2, “Porphyrin compounds and compositions useful for treating cancer” (OncoSelect Therapeutics, LLC, priority 2016, dated 2023).

How the values were obtained:
HCC15 = assay: TCPP uptake in cancer cells vs non-cancer cells by flow cytometry; format: cell-based, human; details: 10 ug/ml, HCC15 vs bone marrow cells
Text: (§1) Porphyrin tetrakis(4-carboxyphenyl)porphyrin (TCPP) uptake by a panel of human lung cancer cell lines including, HCC15, H157, and H358 were examined using flow cytometry in under varying conditions to manipulate clathrin-dependent and independent endocytosis by chemical inhibitors. Referring now to FIG. 1, TCPP uptake in cancer cells (HCC15) as compared to bone marrow cells in a dose dependent manner is illustrated. Similar results are observed with mouse normal lung cells as is shown for bone marrow cells. The uptake of TCPP by HCC15 is greater than 2-fold at 10 ug/ml as compared to the non-cancer cells. […] Chlorpromazine, an antagonist of clathrin-mediated endocytosis, inhibited TCPP uptake in a cancer cell line by up to 80% as is illustrated in FIG. 3. In contrast, the clathrin-independent endocytosis inhibitor filipin had no effect on TCPP uptake. It has been speculated that preferential porphyrin uptake by cancer cells as compared to non-cancer cells is facilitated by the increased number of LDL receptor (LDLR) on the surface of cancer cells. To examine LDLR contribution on TCPP uptake, lung cancer cells were manipulated to express no LDLR, which reduced TCPP uptake by only 20%.

HCC15, H157 and H358 = assay: TCPP uptake in cancer cell lines under sucrose or cold temperature (FIG. 2); format: cell-based, human
Text: (§2) Porphyrin tetrakis(4-carboxyphenyl)porphyrin (TCPP) uptake by a panel of human lung cancer cell lines including, HCC15, H157, and H358 were examined using flow cytometry in under varying conditions to manipulate clathrin-dependent and independent endocytosis by chemical inhibitors. […] It has been speculated that preferential porphyrin uptake by cancer cells as compared to non-cancer cells is facilitated by the increased number of LDL receptor (LDLR) on the surface of cancer cells.

lung cancer cells = assay: TCPP uptake in lung cancer cells manipulated to express no LDLR; format: cell-based, human; details: lung cancer cells expressing no LDLR
Text: as §1

[1] = tested on: human fibroblasts without functional LDLR; assay: TCPP uptake in human fibroblasts without functional LDLR; format: cell-based
a cancer cell line = assay: TCPP uptake by a cancer cell treated with different inhibitors of endocytosis (FIG. 3); format: cell-based, human
Text: as §2

O=C(O)c1ccc(-c2c3nc(c(-c4ccc(C(=O)O)cc4)c4ccc([nH]4)c(-c4ccc(C(=O)O)cc4)c4nc(c(-c5ccc(C(=O)O)cc5)c5ccc2[nH]5)C=C4)C=C3)cc1 [TCPP, tetrakis(4-carboxyphenyl)porphyrin]
uptake of TCPP by HCC15 as compared to the non-cancer cells (HCC15): greater than 2 fold
inhibition of TCPP uptake by cold temperature (HCC15, H157 and H358; cold temperature): nearly completely inhibited
reduction of TCPP uptake (lung cancer cells): 20%
inhibition of TCPP uptake [1]: no inhibition

CCCCC[C@@H](O)[C@H]1C(=O)O[C@H](C)[C@@H](O)/C=C/C=C/C=C/C=C/C=C(\C)[C@@H](O)C[C@H](O)C[C@H](O)C[C@H](O)C[C@H](O)C[C@H](O)C[C@@H]1O [filipin]
effect on TCPP uptake (a cancer cell line; clathrin-independent endocytosis inhibitor): no effect

CN(C)CCCN1c2ccccc2Sc2ccc(Cl)cc21 [Chlorpromazine]
inhibition of TCPP uptake (a cancer cell line; antagonist of clathrin-mediated endocytosis, a cancer cell line): up to 80%

OC[C@H]1O[C@@](CO)(O[C@H]2O[C@H](CO)[C@@H](O)[C@H](O)[C@H]2O)[C@@H](O)[C@@H]1O [sucrose]
inhibition of TCPP uptake by sucrose (HCC15, H157 and H358; flow cytometry): moderately inhibited
